Measurements taken from patent US7671038B1, “Method of therapeautic treatments including human immunodeficiency virus (HIV) disease and other conditions in a human host by administering adenine nucleotides” (priority 1993, dated 2010).
“Also recorded” adds a separate entry of the source.

Experiments:
[1] = tested on: T-cells; settings: HIV seropositive individuals (without AIDS); cited from earlier work
[2] = tested on: TNF-α production; settings: cited from earlier work; for TNF-α biosynthesis inhibition: conclusion of Parmely et al.
[3] = tested on: endotoxin lethality; settings: mice; cited from earlier work
[4] = Phase I continuous intravenous ATP infusions in advanced cancer patients: total blood (red blood cell) ATP levels and adverse effects; format: in vivo, human; settings: after 48 hours of infusion
Text: In advanced cancer patients with cachexia and malnutrition, the basal blood ATP levels were lower than normal but could be elevated to well above a normal level after ATP infusions.

[5] = cited from earlier work
[6] = tested on: tumor-bearing murine models; settings: cited from earlier work
[7] = activated mouse peritoneal macrophages

C[C@H]1O[C@@H](n2cnc3c(N)ncnc32)C[C@@H]1O [ddAdo, 2′,5′-dideoxyadenosine]
cyclic AMP levels [1]: reduce | proliferative capacity of T-cells to recall antigens and T-cell cytotoxicity [1]: increase

Nc1ncnc2c1ncn2[C@@H]1O[C@H](CO)[C@@H](O)[C@H]1O [adenosine]
RNA levels for TNF-α [2, 7]: no effect | TNF-α production [2, 7]: inhibited | TNF-α biosynthesis inhibition [2]: potent inhibitors | protection against endotoxin lethality [3]: failed to protect

Nc1ncnc2c1ncn2[C@@H]1O[C@H](COP(=O)(O)OP(=O)(O)OP(=O)(O)O)[C@@H](O)[C@H]1O [ATP, adenosine 5′triphosphate]
change of total blood levels of ATP (red blood cell ATP pools) ([4]; most patients): doubling | total blood ATP levels ([4]; basal levels 0.9-1 mM): 1.6 to 2 mM | change of blood (red blood cell) ATP levels ([5]; intravenous infusion 50 μg/kg min, after 24 hours, advanced cancer patients): doubling | decline of elevated blood ATP levels after termination of the ATP infusions ([5]; return of total blood ATP to basal levels): declined over a period of several days; also recorded: declined within several days | host weight loss ([6]; cachectic tumor model, murine hosts): markedly inhibit | tumor growth ([6]; elevated ATP levels, tumor-bearing murine models): inhibit

Nc1ncnc2c1ncn2[C@H]1CC[C@@H](O)C1 [MDL201112, reference compound]
TNF-α biosynthesis inhibition [2]: potent inhibitors
